Reference: paper PMC6770336, “Computationally Designed Peptides for Zika Virus Detection: An Incremental Construction Approach” (Biomolecules, 2019)

How the values were obtained:
intact ZIKV particles [1] = experiment: Urine and serum matrix effect on the direct ELISA signal; assay type: binding, Zika virus; settings: peptide 20 μM; for signal decrease in serum: serum diluted 1:10; for signal decrease in serum / signal decrease in urine: 10 mM PBS pH 7.4; for signal decrease in urine: urine diluted 1:1
Description: (§1) After coating the plates overnight, the intact virus particles were removed by washing five times with the washing buffer (PBST) 10 mM PBS pH 7.4, 0.1% Tween-20, using an automated plate washer (MultiWash+, Molecular Devices, Sunnyvale, CA). Then, the plates were blocked with 200 μL of blocking buffers while shaking at 300 rpm at room temperature. The blocking buffers used were Pierce™ protein-free (PBS) blocking buffer (PF), Blocker™ BLOTTO (BT) in TBS, SuperBlock^TM blocking buffer, Blocker™ BSA (1X) in PBS all from ThermoFisher Scientific. After 2 h, the blocking buffers were removed using the same washing procedure mentioned above. Hundred microliter aliquots of several dilutions of peptides biotinylated in 10 mM PBS pH 7.4 were placed in each well and incubated for 2 h while shaking at 300 rpm at room temperature. After the incubation, the unreacted peptides were removed by using the plate washer with the same settings. Then, 100 μL-aliquots of streptavidin-HRP (ThermoFisher Scientific) at a concentration of 20 ng/mL were added into each well and incubated for 30 min at room temperature without shaking. After the incubation, excess streptavidin-HRP was removed and the wells were washed with the plate washer five times using the washing buffer. Finally, 100 μL-aliquots of the Ultra TMB-ELISA substrate solution (ThermoFisher Scientific) were added and after 10 min, the reaction was stopped by adding 100 μL aliquots of the TMB stop solution from SeraCare, available online at; https://www.seracare.com (accessed on 1 abril 2019). The […] (450 nm) was read using a microplate reader (Clariostar Optima; BMG Labtech, Ortenberg, Germany).
Usually, the presence of ZIKV in affected bodies is detected in biological fluids. Therefore, the analytical sensitivity of the selected peptides was tested in two biological matrices, namely, urine and serum. The matrix effect was investigated to understand how real biological fluids could modify the binding efficiency of the peptides.
Figure 8 reports the ELISA data using solutions of peptides with or without the urine and serum obtained, coating clear 96-well plates with 10^6 and 10^7 copies/mL of intact ZIKV particles. Serum and urine were 1:10 and 1:1 diluted, respectively, with a concentrated peptide PBS solution to obtain a peptide final concentration of 20 μM (10 mM PBS, pH 7.4). A coating concentration of 10^5 was also tested, but no signal was observed after the addition of the biological matrix.

intact ZIKV particles [2] = experiment: Direct ELISA vs. intact ZIKV particles; assay type: binding, Zika virus; settings: for FPLR—Dynamic Range: direct ELISA, plates coated with 10-fold serial dilutions of intact ZIKV particles, biotinylated peptide 20 μM in PBS pH 7.4 (4G2 1 μg/mL in PBST), absorbance 450 nm; for FPLR—Dynamic Range / FPLR—maximum / FPLR—minimum: four parameters logistic fit; for FPLR—Dynamic Range / FPLR—C50 / LOD: n = 3; for Long-term stability: dose-response performance of the ELISA reproducible over time, stock 1 mM in 10 mM PBS pH 7.4 stored at −30° C; for FPLR—C50: four parameters logistic fit of delta absorbance vs log ZIKV concentration; for FPLR—C50 / FPLR—maximum / FPLR—minimum / LOD: peptide 20 μM in PBS (4G2 1 μg/mL in PBST); for LOD: interpolated from calibration curve, LOD = AvB + 3 × SDB
Description: Before biotin functionalization, peptides stock solution was reduced using Tris[2-carboxyethyl] phosphine hydrochloride (TCEP) disulfide reducing gel from ThermoFisher Scientific available online at: www.thermofisher.com (accessed on 15 April 2019) and after 1 h, the gel was removed using TCEP gel spin separation columns (ThermoFisher Scientific). Then, two-fold molar excess of EZ-Link™ Maleimide-PEG2-Biotin (ThermoFisher Scientific) was added to purified peptide solution and incubated for 1 h. […] Therefore, no further separation was carried out.
(§2) To optimize all parameters of the direct ELISA protocol, Pierce 96-well polystyrene plates, (ThermoFisher Scientific) were coated overnight at 4° C with different concentrations of intact virus particles (ZIKV or DENV). The intact virus particles were diluted using 100 mM NaHCO3, pH 9.6, and aliquots of 100 μL were dispensed into each well of the plate using a multichannel pipette. This buffer pH assured a strong hydrophobic binding interaction between polystyrene and virus particles.
The antibody 4G2 hybridoma mouse IgG2a was used as the reference and employed in combination with an anti-mouse IgG conjugated to HRP.
as §1
The corresponding blank signals in triplicates were obtained by using all reagents without peptides. They were subtracted to the average absorbance values for triplicate wells of each test.
The optimal concentration of peptide was determined by coating clear 96-well plates with a solution of 10^7 copies/mL of intact ZIKV particles. Concentrations of peptide, from 0.1 to 50 μM, diluted in 10 mM PBS pH 7.4 were added to wells of the microplates coated with intact ZIKV particles. […] Thus, a peptide concentration of 20 μM was used to estimate the linear range and the limit of detection (LOD) of the assay by using 10-fold serial dilutions of intact ZIKV particles from 10^1 to 10^9 copies/mL.
The regression parameters of the assay are reported in Table 4 and the sigmoidal trend in Figure 6. The LOD was interpolated from the calibration curves using LOD = AvB + 3 × SDB, where AvB and SDB were the average (Av) and the standard deviation (SD) of the blank measurements, respectively.

[3] = system: DENV-1 intact virus particles; experiment: Direct ELISA cross-reactivity, DENV-1; assay type: binding; settings: plates coated with 10^6 copies/mL of intact virus particles; peptide 20 μM
Description: as §2
(§3) After coating the plates overnight, the intact virus particles were removed by washing five times with the washing buffer (PBST) 10 mM PBS pH 7.4, 0.1% Tween-20, using an automated plate washer (MultiWash+, Molecular Devices, Sunnyvale, CA). Then, the plates were blocked with 200 μL of blocking buffers while shaking at 300 rpm at room temperature. The blocking buffers used were Pierce™ protein-free (PBS) blocking buffer (PF), Blocker™ BLOTTO (BT) in TBS, SuperBlock^TM blocking buffer, Blocker™ BSA (1X) in PBS all from ThermoFisher Scientific. After 2 h, the blocking buffers were removed using the same washing procedure mentioned above. […] The […] (450 nm) was read using a microplate reader (Clariostar Optima; BMG Labtech, Ortenberg, Germany). […]

[4] = system: DENV-2 intact virus particles; experiment: Direct ELISA cross-reactivity, DENV-2; assay type: binding; settings: plates coated with 10^6 copies/mL of intact virus particles; peptide 20 μM
Description: as §2, §3

[5] = 10^6 copies/mL of intact ZIKV particles
[6] = 10^7 copies/mL of intact ZIKV particles

Row | Substance | signal decrease in serum (intact ZIKV particles [1]; [5]) | signal decrease in serum (intact ZIKV particles [1]; [6]) | signal decrease in urine (intact ZIKV particles [1]; [5]) | signal decrease in urine (intact ZIKV particles [1]; [6]) | FPLR—Dynamic Range (intact ZIKV particles [2]) | Long-term stability (intact ZIKV particles [2]) | FPLR—C50 (intact ZIKV particles [2]) | FPLR—maximum (intact ZIKV particles [2]) | FPLR—minimum (intact ZIKV particles [2]) | LOD (intact ZIKV particles [2]) | DENV/ZIKV signal ratio, DENV-1 [3] | detection limit in urine and serum (intact ZIKV particles [1]; serum 1:10 and urine 1:1) | DENV/ZIKV signal ratio, DENV-2 [4]
1 | C-GSKANNG [H1, experimental peptide with N-terminal cysteine, labelled with maleimide-PEG2-biotin for ELISA] | 82% | 73% | 53% | 45% | 5-7 log[ZIKV], copies/mL | >1 Month | 6.2 log[ZIKV], copies/mL | 0.826 Absorbance (450 nm) | 0.036 Absorbance (450 nm) | 4.5 log[ZIKV], copies/mL | up to 42% | – | –
2 | C-KRNATP [X1, experimental peptide with N-terminal cysteine, labelled with maleimide-PEG2-biotin for ELISA] | 95% | 89% | 95% | 82% | 5-7 log[ZIKV], copies/mL | >1 Month | 6.1 log[ZIKV], copies/mL | 0.973 Absorbance (450 nm) | 0.026 Absorbance (450 nm) | 4.8 log[ZIKV], copies/mL | 32% | 10^7 copies/mL | 49%
3 | C-KTDAYS [X2, experimental peptide with N-terminal cysteine, labelled with maleimide-PEG2-biotin for ELISA] | – | – | – | – | 6-8 log[ZIKV], copies/mL | >1 Month | 6.2 log[ZIKV], copies/mL | 0.915 Absorbance (450 nm) | 0.007 Absorbance (450 nm) | 5.8 log[ZIKV], copies/mL | – | – | –
4 | C-LRGHA [P2, experimental peptide with N-terminal cysteine, labelled with maleimide-PEG2-biotin for ELISA] | 77% | 72% | 72% | 85% | 5-7 log[ZIKV], copies/mL | >1 Month | 6.1 log[ZIKV], copies/mL | 0.928 Absorbance (450 nm) | 0.036 Absorbance (450 nm) | 4.7 log[ZIKV], copies/mL | – | – | 34%
5 | C-SHRNATA [H2, experimental peptide with N-terminal cysteine, labelled with maleimide-PEG2-biotin for ELISA] | – | – | – | – | 6-8 log[ZIKV], copies/mL | >1 Month | 6.5 log[ZIKV], copies/mL | 0.683 Absorbance (450 nm) | 0.014 Absorbance (450 nm) | 5.7 log[ZIKV], copies/mL | – | – | –
6 | C-SWPGQ [P1, experimental peptide with N-terminal cysteine, labelled with maleimide-PEG2-biotin for ELISA] | – | – | – | – | 7-8 log[ZIKV], copies/mL | >1 Month | 6.6 log[ZIKV], copies/mL | 0.140 Absorbance (450 nm) | 0.001 Absorbance (450 nm) | 6.8 log[ZIKV], copies/mL | – | – | –
